Test results reported in patent US20230338374A1, “MDM2 INHIBITORS FOR USE IN THE TREATMENT OR PREVENTION OF HEMATOLOGIC NEOPLASM RELAPSE AFTER HEMATOPOIETIC CELL TRANSPLANTATION” (Novartis AG, priority 2020, published 2023).
Read-outs that look alike come from different tables or passages of the source.

Experiments:
[1] = cited from earlier work
[2] = oral; no dose-limiting toxicities; cited from earlier work
[3] = cited from earlier work; remark: listed apart in the source
donor CD8^+ T-cells = experiment: T cell phenotyping in the GvL mouse model (WEHI-3B), spleen day 12; assay type: in vivo; conditions: allo-transplanted leukemia bearing BALB/c mice, vs vehicle
Description: FIG. 3: MDM2-inhibition promotes cytotoxicity and longevity of donor T cells • (a-h) Scatter plots and representative histograms show expression of Perforin (a, b), CD107a (c, d), IFN-γ (e, f), TNF-α (g, h) of CD8^+ T-cells isolated from spleen on day 12 following allo-HCT of WEHI-3B leukemia bearing BALB/c mice transplanted with C57BL/6 BM plus allogeneic C57BL/6 T-cells and treated with either vehicle or MDM2-inhibitor RG-7112. Mean value±SEM from n=14-19 biologically independent animals per group from 2 experiments are shown and p-values were calculated using two-sided Mann-Whitney U test. (m) Quantification of donor-derived (H-2kb+) TCRb+CD8+CD27+ TIM3+ T cells from allo-transplanted leukemia bearing BALB/c mice treated with RG-7112 or vehicle as indicated. (a) A representative flow cytometry histogram depicts the mean fluorescence intensity (MFI) and scatter plot showing fold-change of MFI for CD69 of all living donor (H-2kb^+) CD8^+ T cells from leukemia bearing BALB/c mice undergoing allo-HCT and being treated with vehicle. […] P-values were calculated using the two-sided Mann-Whitney U test. […] P-values were calculated using the two-sided Mann-Whitney U test. No difference in CD8 T-cells/all CD3 T-cells was detected. […] Mean value±SEM from n=14-19 biologically independent animals per group from 2 experiments are shown and p-value was calculated using two-sided Mann-Whitney U test. […]

[4] = single oral doses; GI toxicities the most common AEs; cited from earlier work
advanced solid tumor = conditions: cited from earlier work
[5] = combined with pimasertib, cited from earlier work
[6] = system: p53-knockdown OCI-AML3 cells; experiment: Expression in p53-knockdown cells (flow cytometry, western blot); assay type: cell-based, human; conditions: FIG. 9a
Protocol: MFI of control-treated cells was set as 1.0. P-values were calculated using the two-sided Student's unpaired t-test.
MFI of control-treated cells was set as 1.0. P-values were calculated using two-sided Student's unpaired t-test.
(a) Representative western blot (left panel) showing the expression of MDM2, p53 and loading control (GAPDH) in WT OCI-AML3 cells or p53 knockdown OCI-AML3 cells exposed to […] doxorubicin for 4 hours, when indicated. Right panel: Quantification of the relative intensity of the protein bands for each group.
P53 knockdown cells have been previously described (24). The p53 shRNA (p53.1224) had been cloned into a retroviral vector that co-expressed red fluorescent protein and which could be induced by doxycycline (24). […]
For excluding dead cells, the LIVE/DEAD Fixable Dead Cell Stain kit (Molecular Probes, USA) or LIVE/DEAD™ Fixable Aqua Dead Cell Stain Kit (Thermo Scientific) along with True Stain FcX (BioLegend) were used, according to the manufacturer's instructions. For all flurochrome-conjugated antibodies, optimal concentrations were determined using titration experiments. […] Data were acquired on the BD LSR Fortessa flow cytometer (BD Biosciences, Germany) and analyzed using Flow Jo software version 10.4 (Tree Star, USA). […]

OCI-AML3 cells = experiment: Killing assay with recombinant hTRAIL, viability by flow cytometry; assay type: cell-based, human; conditions: p53^−/− AML cells, FIG. 9e
Protocol: After 48 hours limiting concentrations of hTRAIL (TNFSF 10) were added for 24 hours, where indicated. The viability of the AML cells was measured by flow cytometry. […] P-values were calculated using two-sided Student's unpaired t-test.
Where indicated wildtype OCI-AML3 (WT) or p53 knockout (p53^−/−) OCI-AML3 were incubated with 1 μM MDM2-inhibitor RG7112. After 48 hours limiting concentrations of hTRAIL (TNFSF 10) were added for 24 hours where indicated. Viability of cells was measured by flow cytometry. […] P-values were calculated using two-sided Student's unpaired t-test.
For Killing assays using recombinant hTRAIL ((TNFSF 10, Apo-2L, CD253;) […]®; ENZO), the ligand was added for 24 h 0.5 μg/ml (1:1000) for optimal killing and 0.25 μg/ml (1:2000) for limiting killing conditions to OCI-AML3 target cells. Viability of cells was assessed by LIVE/DEAD™ Fixable Aqua Dead Cell Stain Kit (Thermo Scientific). Data were acquired on the BD LSR Fortessa flow cytometer (BD Biosciences) and analyzed using Flow Jo software version 10.4 (Tree Star).

CC(C)[C@@H](CS(=O)(=O)C(C)C)N1C(=O)[C@@](C)(CC(=O)O)C[C@H](c2cccc(Cl)c2)[C@H]1c1ccc(Cl)cc1 [AMG 232]
MTD ([1]; dose escalation discontinued because of gastrointestinal AEs): not reached | treatment-related AE decreased appetite ([1]; in vivo): 25% | treatment-related AE diarrhea ([1]; in vivo): 56% | treatment-related AE nausea ([1]; in vivo): 58% | treatment-related AE vomiting ([1]; in vivo): 33%

CCN1[C@@H](C(=O)NC23CCC(C(=O)O)(CC2)CC3)[C@H](c2cccc(Cl)c2F)[C@]2(C(=O)Nc3cc(Cl)ccc32)C12CCCCC2 [APG-115]
optimum dose [2]: 100 mg

COc1ncc(-c2nc3c(n2C(C)C)[C@H](c2ccc(Cl)cc2)N(c2cc(Cl)cn(C)c2=O)C3=O)c(OC)n1 [HDM201]
grade 3/4 adverse event anemia ([3]; Reg 1): 8% | grade 3/4 adverse event neutropenia ([3]; Reg 1): 26% | grade 3/4 adverse event thrombocytopenia ([3]; Reg 1): 24% | grade 3/4 adverse event anemia ([3]; Reg 2): 17% | grade 3/4 adverse event neutropenia ([3]; Reg 2): 14% | grade 3/4 adverse event thrombocytopenia ([3]; Reg 2): 28%

CCOc1cc(C(C)(C)C)ccc1C1=N[C@@](C)(c2ccc(Cl)cc2)[C@@](C)(c2ccc(Cl)cc2)N1C(=O)N1CCN(CCCS(C)(=O)=O)CC1 [RG7112]
CD8 T-cells/all CD3 T-cells (donor CD8^+ T-cells): No difference | tolerability [4]: generally well tolerated

CC(C)(C)C[C@@H]1N[C@@H](C(=O)N[C@H]2CC[C@H](O)CC2)[C@H](c2cccc(Cl)c2F)[C@]12C(=O)Nc1cc(Cl)ccc12 [SAR405838]
3-month progression free rate (advanced solid tumor; 74 patients treated): 32% | best response, patients (advanced solid tumor; 74 patients treated): 56% | safety profile (advanced solid tumor; patients with advanced solid tumors): acceptable safety profile | adverse event blood creatine phosphokinase ([5]; 26 patients): 77% | adverse event diarrhoea ([5]; 26 patients): 81% | adverse event nausea ([5]; 26 patients): 62% | adverse event vomiting ([5]; 26 patients): 62% | safety profile of the combination [5]: consistent with the safety profiles of both the drugs

COc1cccc2c1C(=O)c1c(O)c3c(c(O)c1C2=O)C[C@@](O)(C(=O)CO)C[C@@H]3O[C@H]1C[C@H](N)[C@H](O)[C@H](C)O1 [doxorubicin]
induction of p53 [6]: decreased

B1: TRAIL: recombinant hTRAIL (TNFSF 10, Apo-2L, CD253) (protein)
chain: TSEETISTVQEKQQNISPLVRERGPQRVAAHITGTRGRSNTLSSPNSKNEKALGRKINSWESSRSGHSFLSNLHLRNGELVIHEKGFYYIYSQTYFRFQEEIKENTKNDKQMVQYIYKYTSYPDPILLMKSARNSCWSKDAEYGLYSIYQGGIFELKENDRIFVSVTNEHLIDMDHEASFFGAFLVG
apoptosis induced (OCI-AML3 cells): less apoptosis
